Assay [1] concerns PDE 4. Description: PDE 4 Enzyme Inhibition (SPA). As to conditions: enzyme from human PMNs, cAMP 1 μM; for IC50: 40 minutes at 30° C. The class given is biochemical. The source says:
PDE 4 Enzyme Inhibition Study a) Purification of Human Polymorphonucleate Leukocytes The polymorphonucleate leukocytes (PMNs) were isolated from peripheral blood of healthy volunteers according to what described by Boyum A., Scand. J. Immunol., 1976, 50 suppl., 9). Shortly, the isolation of the PMNs was effected by Ficoll-Paque gradient centrifugation followed by sedimentation on dextrane and the erythrocyte contanunation was eliminated by hypotonic lysis. b) PDE 4 Enzyme Purification The human PMNs were re-suspended in TRIS/HCl buffer (10 mM pH 7.8) containing MgCl2 (5 mM), EGTA (4 mM), mercaptoethanol (5 mM), TRITON-X100 (1%), pepstatin A (1 μM), PMSF (100 μM) and leupeptin (1 μM), and homogenized by Polytron. The homogenate was centrifuged at 25,000×g per 30 minutes at 4° C. and the sumatant was used for the PDE 4 enzyme purification by ion exchange chromatography using the FPLC technique according to what described by Schudt C. et al., Naunyn-Schmidberg's Arch. Pharmacol., 1991, 334, 682. The surnatant was seeded on a UNO Q12 column (Bio-Rad) and the enzyme was eluted by sodium acetate gradient from 50 mM to 1M. The fractions containing enzymatic activity were joined, dialysed against water and concentrated. The resulting PDE 4 enzyme was stored at -20° C. in the presence of ethylenglycole (30%) v/v) till the use c) PDE 4 Enzyme Inhibition The enzyme activity was evaluated with an Amersham kit based on the SPA technique (Scintillation Proximity Assay). The enzymatic reaction was effected in a total volume of 100 μl of TRIS/HCl buffer (50 mM, pH7.5), MgCl2, (8.3 mM), EGTA (1.7 mM), cAMP (1 μM) and [^3 H]cAMP (~100.000 dpm). The compounds of the invention were added at the wanted concentrations. The reaction was started by adding the enzyme (15 μg protein/ml) in 40 minutes at 30° C. and stopped by adding 50 μl of suspension of SPA particles. The radioactivity due to the particles was measured in β-emitting counter. The IC50 values were calculated on 9 equidistant concentrations in logarithmic scale using a 4-parameters logistic function by a software.

The target in assay [2] is T1, PDE 5 (Homo sapiens, UniProt O76074).
T1 construct: from tissue; host or cells: human platelets from platelet rich plasma
The assay is described as follows: PDE 5 Enzyme Inhibition Test (SPA). As to conditions: enzyme from human platelets; cGMP 1 μM; head prints (μM), no concentration figure. The class given is biochemical. On the procedure: (§1) PDE 3 and 5 Enzymes Inhibition Test a) Human Platelet Preparation
(§2) Human platelets were prepared from platelet rich plasma (PRP) obtained from the Hematological Dept. of the "L. Sacco" Hospital of Milan. […]
(§3) b) Purification of PDE 3 and PDE 5 with Fast Protein Liquid Chromatography (FPLC) Before the chromatographic step, platelets were thawed and 50 ml of 20 mM TRIS (pH=6.5) containing 5 mM β-mercapto-ethanol, 2 mM EDTA, 50 mM sodium acetate and 50 μM PMSF (homogenization buffer) were added. The platelet suspension was then homogenized by a Polytron homogenizer (Polytron PT 1200) for 20 seconds. The homogenate was centrifuged at 14,500 rpm for 20 minutes at 4° C., and the supernatant was applied to a UNO Q12 column (Bio-Rad) pre-equilibrated with the PMSF. A flow rate of 4.5 ml/min was used throughout the ion exchange chromatography procedure. The column was washed with PMSF (180 ml) and PDE 3 and PDE 5 were eluted by sodium acetate linear gradient from 0.05M to 1M. The fractions containing enzymatic activity were joined, dialyzed against water and concentrated 10 times by ultrafiltration. The resulting solution was stored at -20° C. in the presence of ethylenglycole (30%) v/v) until use. […]
(§4) c) Assay of Phoshodiesterase Activity
(§5) The enzyme activity was assessed with an Amersham kit based on the SPA technique (Scintillation Proximity Assay). The enzymatic reaction was effected in a total volume of 100 μl of TRIS/HCl buffer (50 mM, pH7.5), MgCl2 (8.3 mM), EGTA (1.7 mM), cAMP (for PDE 3 assay) or cGMP (for PDE 5 assay) (1 μM), [^3 H]cAMP or [^3 H]cGMP (10 μl), and 10 μl of the compounds of the invention. The reaction was started by adding the enzyme (10 μl) incubated for 40 minutes at 30° C. and stopped by adding 50 μl of SPA beads. The radioactivity due to the particles was measured in β-emitting counter. The results are expressed as percent activity versus the control present in each test.

In assay [3] the test system is TNFα. Description: TNFα Synthesis Inhibition (LPS-induced, human monocytes, ELISA). It is filed as cell-based. The note with it: Monocyte, LPS 1 ng/ml, 16 hours at 37° C. As to the method: TNFα Inhibition Test a) Human Monocytes Isolation The monocytes were isolated from peripheral blood of healthy volunteers according the procedure of […]. Natl. Cancer Inst., 1964, 32, 507. The monocytes and lymphocytes population was isolated by Ficoll gradient centrifugation, and the cells diluted at a density of 2.5×10^6 cells/ml in RPMI1640 incubation containing 1% inactivated bovine fetal serum, penicillin (100 U/ml) and streptomycin (100 U/ml) were placed in 24-wells plates (1 ml/well) and left to adhere for 1 hour at 37° C. with 5% CO2. At the end of the incubation the lymphocytes not adhering were removed by aspiration and the monocytes adhered to the plate were used in the next step. b) TNFα Synthesis Inhibition The TNFα synthesis from human monocytes was measured according to the method of Barnette M. et al., Biochemical Pharmacology, 1996, 51, 949. The monocytes were incubated for 1 hour with 1 ml of RPMI1640 incubation medium (1% inactivated bovine serum, 100 U/ml penicillin and streptomycin) containing different concentrations of the products according to the present invention or the carrier only for the controls. The TNFα synthesis from monocytes was induced by adding 1 ng/ml of LPS (lipopolysaccharide of E. Coli) and after 16 hours of incubation at 37° C., 5% CO2, the incubation medium was removed, and the surnatant stored at -80° C. until the measurement. The TNFα levels were determined by ELISA test with an Amersham kit. The results are set forth in Table 2 as IC50 measured with the same calculation of example 53.

Assay [4] deals with T2, PDE 3 (Homo sapiens, UniProt Q14432).
T2 construct: the supernatant was applied to a UNO Q12 column (Bio-Rad); from tissue; host or cells: human platelets from platelet rich plasma
The assay is described as follows: PDE 3 Enzyme Inhibition Test (SPA). It is filed as biochemical. As to conditions: enzyme from human platelets; cAMP 1 μM; head prints (μM), no concentration figure. As to the method:
as §1, §2, §3, §4, §5

Where a name gives a salt, the structure may show the parent alone.

The values below come from patent US6297257A, “Benzazine derivatives phosphodiesterase 4 inhibitors” (Zambon Group S.p.A., priority 1997, dated 2001).

For orientation: IC50 means the concentration needed to halve the response being measured. Low values mean greater potency, high ones weaker potency.

T2 sequence (Q14432 whole entry): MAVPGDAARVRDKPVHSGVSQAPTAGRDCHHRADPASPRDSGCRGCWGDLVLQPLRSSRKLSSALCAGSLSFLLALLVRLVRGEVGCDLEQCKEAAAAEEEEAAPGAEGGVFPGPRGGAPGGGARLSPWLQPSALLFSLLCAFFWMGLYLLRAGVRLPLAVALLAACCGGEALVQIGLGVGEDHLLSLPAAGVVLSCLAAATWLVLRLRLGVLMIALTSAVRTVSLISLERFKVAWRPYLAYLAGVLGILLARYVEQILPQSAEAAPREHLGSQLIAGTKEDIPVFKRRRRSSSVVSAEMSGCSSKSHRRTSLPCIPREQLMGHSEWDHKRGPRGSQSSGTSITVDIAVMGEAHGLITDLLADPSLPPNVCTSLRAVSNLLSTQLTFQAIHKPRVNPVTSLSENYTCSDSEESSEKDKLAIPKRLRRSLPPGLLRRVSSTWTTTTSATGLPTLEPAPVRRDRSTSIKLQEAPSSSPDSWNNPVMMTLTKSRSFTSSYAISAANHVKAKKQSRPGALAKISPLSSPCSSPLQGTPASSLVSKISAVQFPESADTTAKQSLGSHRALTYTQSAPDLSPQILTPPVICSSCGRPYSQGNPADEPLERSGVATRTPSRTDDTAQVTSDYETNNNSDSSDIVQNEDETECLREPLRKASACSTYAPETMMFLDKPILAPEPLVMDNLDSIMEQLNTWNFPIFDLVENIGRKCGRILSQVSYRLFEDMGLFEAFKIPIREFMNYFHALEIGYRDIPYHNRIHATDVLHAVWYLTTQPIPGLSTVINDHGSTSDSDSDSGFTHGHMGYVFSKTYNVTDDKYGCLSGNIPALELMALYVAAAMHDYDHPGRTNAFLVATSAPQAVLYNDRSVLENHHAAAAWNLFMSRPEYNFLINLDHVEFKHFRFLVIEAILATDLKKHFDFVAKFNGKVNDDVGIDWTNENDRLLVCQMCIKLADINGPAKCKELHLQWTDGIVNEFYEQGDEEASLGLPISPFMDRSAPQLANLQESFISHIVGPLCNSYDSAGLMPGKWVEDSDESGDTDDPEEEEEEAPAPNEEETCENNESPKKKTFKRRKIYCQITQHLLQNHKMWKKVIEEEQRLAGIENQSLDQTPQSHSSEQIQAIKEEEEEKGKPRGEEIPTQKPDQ

Take `COc1ccc2c(c1OCCCCCc1ccccc1)CCNC2Cc1c(Cl)cncc1Cl.Cl.Cl` (centres unmarked) [Compound 4, 1-(3,5-dichloro-pyridin-4-yl-methyl)-5-(5-phenylpentyloxy)-6-methoxy-1,2,3,4-tetrahydro-isoquinoline Dihydrochloride]: the “PDE 4 % inhibition” value in assay [1] (10^-6 M) is given as 54%.

`COc1ccc2c(c1OC1CCCC1)CCN=C2Cc1c(Cl)cncc1Cl` [Compound 1, 5-Cyclopentyloxy-1-(3,5-dichloro-2-pridin-4-yl-methyl)-6-methoxy-3,4-dihydro-isoquinoline Hydrochloride]: the “PDE 5 % inhibition (μM)” value in assay [2] stood at 10%. Moreover, the “PDE 4 % inhibition” value is on record as 96% in assay [1] (10^-5 M) and 79% in assay [1] (10^-6 M). The IC50 in assay [1] is 148 ± 18 nM; in assay [3], 252 ± 67 nM. In addition, the “PDE 3 % inhibition (μM)” value in assay [4] turned out to be 0%.

Consider `COc1cc2[nH]cc(-c3c(Cl)cncc3Cl)c(=O)c2cc1OC1CCCC1` [Compound 10, 6-Cyclopentyloxy-3-(3,5-dichloro-pyridin-4-yl)-7-methoxy-1H-quinolin-4-one], for which the “PDE 4 % inhibition” value in assay [1] (10^-6 M) stood at 73%.

`COc1cc2c(cc1OC1CCCC1)C(Cc1c(Cl)cncc1Cl)=NCC2.Cl` [Compound 2, 7-Cyclopentyloxy-1-(3,5-dichloro-pyridin-4-yl-methyl)-6-methoxy-3,4-dihydro-isoquinoline Hydrochloride]: the entries for the “PDE 4 % inhibition” value in assay [1] (10^-5 M) and in assay [1] (10^-6 M) were 88% and 54%, respectively. This compound also registered an IC50 in assay [1] of 1050 ± 191 nM.

Regarding `COc1ccc2c(c1OCCCCCc1ccccc1)CCN=C2Cc1c(Cl)cncc1Cl.Cl` [Compound 3, 1-(3,5-Dichloro-pyridin-4-yl-methyl)-5-(5-phenylpentyloxy)-6-methoxy-3,4-dihydro-isoquinoline Hydrochloride], in assay [2], the “PDE 5 % inhibition (μM)” value is recorded as 12%. Besides, the “PDE 4 % inhibition” value in assay [1] (10^-6 M) came out at 93%. For the same compound, the results for the IC50 in assay [1] and in assay [3] were 87.5 ± 17 nM and 83 ± 16 nM, respectively. Moreover, the “PDE 3 % inhibition (μM)” value in assay [4] is listed as 24%.

On to `COC(=O)c1c(Cc2c(Cl)cncc2Cl)c2ccc(OC)c(OC3CCCC3)c2[nH]c1=O` [Compound 8, 8-Cyclopentyloxy-4-(3,5-dichloro-pyridin-4-yl-methyl)-7-methoxy-2-oxo-1,2-dihydro-quinolin-carboxylic Acid Methyl Ester], for which the “PDE 4 % inhibition” value in assay [1] (10^-6 M) was found to be 60%.

As to `COc1cc2c(cc1OC1CCCC1)C(=O)C(c1c(Cl)cncc1Cl)CN2` (centres unmarked) [Compound 12, 6-Cyclopentyloxy-3-(3,5-dichloro-pyridin-4-yl)-7-methoxy-2,3-dihydro-1H-quinolin-4-one], the “PDE 5 % inhibition (μM)” value in assay [2] is recorded as 10%. For the same compound, the “PDE 4 % inhibition” value was determined as 100% in assay [1] (10^-5 M) and 94% in assay [1] (10^-6 M). For the same compound, the IC50 in assay [1] turned out to be 101 ± 21 nM; in assay [3], 78.7 ± 16 nM. For the same compound, in assay [4], the “PDE 3 % inhibition (μM)” value came to 12%.
